Test results published in PMC8297771 (PLoS Pathogens, 2021).

Key:
[1] = Microsomal stability determination; assay type: in vitro ADME, animal and human; details: human, liver microsomes; all tested species; read-out: microsomal stability T1/2
Method: A liver microsome (LM) stability assay was […] of incubation at 0, 10, 20, 30 and 60 min with a […] STP0404 initial concentration. All plates were shaken and centrifuged at 3200 x g for 20 mins. Then 100 μL of supernatant was taken from each well and diluted with 300 μL pure water before analyzed by LC/MS/MS. Animal and human liver microsomes were purchased from Wuxi AppTec, Xenotech or Corning and stored in a freezer (lower than -60°C) before use (Wuxi AppTec, China).

[2] = Safety pharmacology: effects on the central nervous system in rats; assay type: in vivo; details: single oral 100, 300 and 600 mg/kg
Method: Effects on the Respiratory System in Rats (Study no. YL18404). Four groups of eight male rats were given a single oral administration of STP0404 at doses of 100, 300 and 600 mg/kg. STP0404 was administered as a suspension in 0.5% MC in a volume of 10 mL/kg. […] Measurements were conducted at pre-dosing and 0.5, 1, 3, 6 12 and 24 hrs post-dosing, and respiratory rate, tidal volume and minute volume were investigated (INA Research, Japan). Effects on the Central Nervous System in Rats (Study no. YL18405). Four groups of six male rats were given a single oral administration of STP0404 at doses of 0 (vehicle), 100, 300 and 600 mg/kg. The test article was administered as a suspension in 0.5% MC in a volume of 10 mL/kg. […] Blinded observations were conducted pre-dosing and 0.5, 1, 3, 6, 12 and 24 hrs post-dosing on rats body temperature, pupil size, landing foot-splay and grip strength in functional observational battery. Effects on the Cardiovascular System in Dogs (Study no. YL18406). STP0404 at dose levels of 30, 60 and 90 mg/kg were administered orally (by capsules) to four male Beagle dogs in a design with 7-day intervals between doses. Heart rate, blood pressure (systolic, diastolic and mean) and electrocardiographic (ECG) parameters (PR, QT and QTc intervals and QRS duration) were evaluated at pre-dosing and 0.5, 1, 2, 4, 8 and 24 hrs post-dosing. […]

[3] = tested on: CEMx174 cells; assay: Tissue culture cytotoxicity measurement in CEMx174 cells; assay type: cell-based
Method: Fig 1 ALLINI structures and STP0404 activities. A. Quinoline-based BI224436, B. Benzothiazole-based GS-9822, C. Pyridine-based KF116, D. Pyrrolopyridine-based STP0404. The conserved chemical moiety containing tert-butoxy and carboxylic acid groups are marked by “]”. E. In vitro anti-HIV-1 efficacy of STP0404 against HIV-1NL4-3 and 89.6 strains in indicated cell lines. TI: Minimal therapeutic index values were calculated with 50% in vitro inhibitory concentration values (IC50) and 10 μM where no sign of cytotoxicity was observed during tissue culture cytotoxicity measurements (TC50) of all tested compounds in both MT4 and CEMx174 cell lines.

[4] = target: IN-LEDGF/p75 binding (Human immunodeficiency virus type 1 group M subtype B, UniProt P12497); assay: HTRF-based inhibition assay for LEDGF/p75 binding to IN; assay type: biochemical, HIV-1
Method: We examined the ability of STP0404 to inhibit IN binding to LEDGF/p75 using another HTRF-based assay. Briefly, 10 nM His-tagged IN was pre-incubated in a binding buffer (150 mm NaCl, 2 mm MgCl2, 0.1% Nonidet P-40, 1 mg/ml BSA, 25 mm Tris, pH 7.4) with the compound for 30 min at room temperature, and then 10 nM FLAG-tagged LEDGF/p75 was added to the reaction. This was followed by addition of 6.6 nM anti-His6-XL665 and 0.45 nM anti-FLAG-EuCryptate antibodies (Cisbio, Inc., Bedford, MA).

[5] = target: T1, full-length IN (Human immunodeficiency virus type 1 group M subtype B, UniProt P12497); assay: HTRF-based IN multimerization assay; assay type: biochemical, HIV-1
T1 construct: between two full-length IN protein populations differentially labeled
Method: To test the ability of STP0404 to induce higher-order multimerization of IN we employed homogeneous time-resolved fluorescence (HTRF)-based assay. Briefly, His-tagged and FLAG-tagged INs (each at 10 nM final concentration) were mixed in buffer containing 25 mM Tris, pH 7.4, 150 mM NaCl, 2 mM MgCl2, 0.1% Nonidet P-40 and 1 mg/ml BSA. This mixture was incubated with various concentrations of the test compounds for 3 hrs at room temperature. The detection is based on anti-His6-XL665 and anti-FLAG-EuCryptate antibodies (Cisbio, Inc., Bedford, MA) which were added to the reaction and incubated at room temperature for 3 hrs. The HTRF signal was recorded by PerkinElmer EnSpire multimode plate reader and OriginLab software was used to calculate the EC50 values.

[6] = target: T2, IN-RNA binding (His6 tagged IN, HIV-1 TAR RNA) (Human immunodeficiency virus type 1 group M subtype B, UniProt P12497); assay: Alpha Screen inhibition assay for IN binding to RNA; assay type: biochemical
T2 construct: incubated with 100 nM His6 tagged IN
Method: Primary antiviral activity of ALLINIs was observed during virion maturation, where they inhibit IN-RNA interactions, we examined the ability of STP0404 to inhibit recombinant IN binding to synthetic TAR RNA using Alpha screen based assay. Briefly, different concentrations of STP0404 were incubated with 100 nM His6 tagged IN in buffer containing 100 mM NaCl, 1 mM MgCl2, 1 mM DTT, 1mg/mL BSA, 25 mM Tris, pH 7.4 at 4°C for 2 hrs. This mixture was then added to the nickel acceptor beads while biotinylated-TAR RNA was added to the streptavidin donor beads. After 2-hrs incubation at 4°C, the RNA mixture was added to the IN-drug mixture and the reading was taken after 1 hr incubation at 4°C by PerkinElmer Life Sciences Enspire multimode plate reader. The IC50 values were calculated by OriginLab software.

Cc1nc2c(c(C)c(C)n2Cc2cnn(C)c2)c(-c2ccc(Cl)cc2)c1[C@H](OC(C)(C)C)C(=O)O [STP0404]
half-life at 1 μL [1]: > 2.22 h
safety pharmacology concerns, central nervous system [2]: did not induce any safety pharmacology concerns
TC50 [3]: > 10,000 nM
IC50 [4]: 190 ± 70 nM
EC50 [5]: 147 ± 20 nM
IC50 [6]: 20 ± 3 nM
